Like-named read-outs stand apart in the source and are kept apart here.
Key:
[1] = test system: rat diarrhea under restriction stress; test: Inhibitory action for rat diarrhea under restriction stress; format: in vivo; settings: oral, 30 min before restraint, male Wistar rats, 3 hours, nonlinear least square method
Method: L. Williams et al. [GASTROENTEROLOGY, 94, 611–621 (1988)] was determined as follows, and the results were analyzed by the nonlinear least square method. 8-Week old male Wistar rats were starved from the evening of the day before the test. Each test compound was orally administered to the rats. After 30 minutes, the rats were constrained by binding of their fore-limbs and hind-limbs with wires. The rats were left in individual gages on white sheets under luminescent lamps for 3 hours. […] The test was performed with groups of rats each consisting of 8 rats.

[2] = test system: large bowel transportation ability of normal mice; test: Effect on large bowel transportation ability of normal mice (glass bead excretion); format: in vivo, mouse; settings: ddY male mice, bead inserted after 30 minutes
Method: G. et al. [Drug Dev. Res., 9, 241-247, (1986)] was determined as follows. Each test compound was orally administered to 5- to 7-week old ddY male mice starved for about 4 hours. […] After the insertion of the glass bead, time (second) from the insertion to excretion of the bead from the anus was measured, and the time was used as an index of large bowel transportation ability. The test was performed by using groups of mice each consisting of 9 to 11 mice, and all of the procedures were performed under no anesthesia.

[3] = Metabolic activity in human liver, in vitro system with S9 fraction; format: in vitro ADME; settings: 50 μmol/L test compound, 1 mg/mL human liver S9, NADPH production system, 37 °C, 15 minutes
Method: The test was performed in an in vitro system utilizing human liver S9 fraction in the presence of an NADPH production system described below. A reaction mixture of a total volume of 125 μL containing components at given final concentrations was prepared (50 μmol/L of test compound, 6 mmol/L of MgCl2.6H2O, 1 mmol/L of β-NADP^+, 10 mmol/L of glucose-6-phosphate (G-6-P), 0.7 U/mL of G-6-P dehydrogenase, 100 mmol/L of potassium phosphate (pH 7.4), 0.1 mmol/L of EDTANa2, and 1 mg/mL of human liver S9), and incubated at 37 C.° for 15 minutes. The reaction was stopped by the addition of 125 μL of N,N-dimethylformamide containing a substance for internal standard. The reaction mixture was centrifuged (2,000×g, 10 minutes), and the supernatant was subjected to HPLC analysis to determine the concentration of unchanged substance. Consumed amount was calculated from the concentration of unchanged substance, and the metabolic rate was represented as activity per unit amount of protein.

[4] = Reverse mutation test
Method: A reverse mutagenicity test was performed using the compound of Example 1 (b) of the present specification, hydrochloride of 5,7-dimethyl-2-(1-piperazinyl)benzoxazole (C), hydrochloride of 5-chloro-7-methyl-2-(4-methyl-1-piperazinyl)benzoxazole (D), and hydrochloride of 5-chloro-7-methyl-2-(4-methyl-1-homopiperazinyl) benzoxazole (E) (compounds disclosed in Japanese Patent Publication (KOKAI) No. 10-29987/1998), and the compound described in Reference Example 4 of the present specification, i.e., hydrochloride of 5-chloro-7-methyl-2-(1-piperazinyl) benzoxazole (F) according to the method of T. Matsushima et al. (Noropoth K. H., Springer, Berlin-Heidelberg-New York, “Short-Term Test Systems For Detecting Carcinogens”, pp. 273–285, 1980) referred by the guideline 471 of ORGANIZATION FOR ECONOMIC CO-OPERATION AND DEVELOPMENT.

[5] = Toxicity test, oral administration to mice; format: in vivo; settings: 300 mg/kg, suspended in distilled water, 7-week old male mice
Method: The compound of Example 1 (b) gave no death of the animal at a dose of 300 mg/kg.

Row | Structure (SMILES) | ED50 value [1] [µg/kg] | time from insertion to excretion of glass bead ([2]; dose 3 mg/kg oral) [s] | time from insertion to excretion of glass bead ([2]; dose 10 mg/kg oral) [s] | time from insertion to excretion of glass bead ([2]; dose 30 mg/kg oral) [s] | Metabolic activity [3] [nmol/min/mg protein] | reverse mutagenicity ([4]; method of Matsushima et al., OECD guideline 471) | ED50 ([1]; Rattus norvegicus) [µg/kg] | death of the animal [5] | reverse mutagenicity [4]
1 | Cc1cc(C)c2oc(N3CCNCC3)nc2c1.Cl [Hydrochloride of C, hydrochloride of 5,7-dimethyl-2-(1-piperazinyl)benzoxazole] | 27.2 | 234.01 | 251.00 | 357.08 | 0.06 | negative | – | – | –
2 | Cc1cc(Cl)cc2nc(N3CCCNCC3)oc12.Cl [Example 1 (b), 5-Chloro-2-(1-homopiperazinyl)-7-methylbenzoxazole hydrochloride] | – | 218.39 | 313.60 | 239.11 | – | – | 0.25 | no death | negative
